Assays:
[1] = system: panelists (saltiness intensity); assay: Descriptive analysis of saltiness intensity of topically coated potato chip samples (sample sets 3 and 4), 15-point scale; type: in vivo, human; conditions: for salt-enhancing activity on potato chips: applied topically (as mixture) to 20% and 40% salt reduced potato chips at the 1x dosage
Text: (§1) The terms “saltiness,” “saltiness intensity,” and “mean saltiness intensity” may refer to the saltiness intensity of a compound, a composition, and/or a food product determined by an individual tasting a sample of the compound, the composition, and/or the food product and rating its saltiness intensity using a designated scale, such as the 15-point saltiness scale described herein.
(§2) Next, the panelists conducted descriptive analysis to evaluate the saltiness intensity of the following four sample sets.
(3) 1 g potato chip samples with 20% reduction in NaCl (12.3 g NaCl/kg) and 40% reductions in NaCl (9.2 g NaCl/kg), relative to traditional potato chips (15.4 g NaCl/kg); and
(4) 1 g potato chip samples at 20% and 40% salt reductions (relative to standard potato chips) with the addition of a mixture of the identified saltiness-enhancing compounds topically applied to potato chips at the endogenous level of the analyzed unsalted potato chips (1×).
(§3) Panelist evaluation of sample set (3): Twelve panelists rated saltiness intensity using a 15-point scale, in duplicate. The saltiness references provided were 0 points (water), 2.5 points (0.2% NaCl), 5 points (0.35% NaCl), and 8.5 points (0.5% NaCl).
Panelist evaluation of sample set (4): Nine panelists rated saltiness intensity using a 15-point scale, in duplicate. The saltiness references provided were 0 points (water), 2.5 points (0.2% NaCl), 5 points (0.35% NaCl), and 8.5 points (0.5% NaCl). […] Thus, application of one or more of the identified saltiness-perception enhancing compounds to a food product may enable a reduction of up to about 40 wt % of the amount of salt applied to a food product while eliminating or attenuating the concomitant reduction in saltiness that would otherwise occur.

[2] = system: panelists (saltiness intensity); assay: Descriptive analysis of saltiness intensity of aqueous salt solutions (sample sets 1 and 2), 15-point scale; type: in vivo, human; conditions: for saltiness enhancement in salt solutions: 1x dosage level, 3.52 g NaCl/L (20% NaCl reduction), Tukey HSD alpha 0.05
Text: as §1, §2
(1) 2 mL samples of aqueous salt solutions with a 20% reduction in NaCl (3.52 g NaCl/L H2O) and 40% reduction in NaCl (2.64 NaCl/L H2O), relative to 2 mL of a control sample having a simulated saltiness intensity of traditional potato chips (4.40 g NaCl/L H2O);
(2) 2 mL samples of pH 6.2-6.5 aqueous salt solutions at the 20% NaCl reduction level (3.52 g NaCl/L H2O) with the addition of individual ones of the identified saltiness-enhancing compounds, where the compound dosage was at the endogenous level of the analyzed unsalted potato chips (1×) and at three times the endogenous level of the potato chips (3×);
Panelist evaluation of sample set (1): Twelve panelists rated saltiness intensity using a 15-point scale, in duplicate. The saltiness references provided were 0 points (water), 2.5 points (0.2% NaCl), 5 points (0.35% NaCl), and 8.5 points (0.5% NaCl).
as §3, with “(2): Eight” for “(3): Twelve”, “NaCl). The sensory dosage concentrations of the saltiness-enhancing compounds of the samples of sample set (2) is shown below in Table 3.” for “NaCl).”

Which results are given for O=C(O)c1cc(O[C@@H]2OC[C@@H](O)[C@H](O)[C@H]2O)ccc1O [GAX, Gentisic acid 5-O-β-D xylopyranoside]?
salt-enhancing activity on potato chips [1]: salt-enhancing activity; saltiness enhancement in salt solutions [2]: significant saltiness enhancement; Mean Saltiness Intensity ([2]; 3.52 g NaCl + 0.44 mg GAX per L water (1x), pH 6.2-6.5, 15-point scale, eight panelists, Tukey group a (NaCl alone 5.0 b)): 6.0 a; Mean Saltiness Intensity ([2]; 3.52 g NaCl + 1.32 mg GAX per L water (3x), pH 6.2-6.5, 15-point scale, eight panelists, Tukey group ab (NaCl alone 5.0 b)): 5.4 ab

What does the source list for O=C(CCc1ccc(O)c(O)c1)NCCCNCCCCNCCCNC(=O)CCc1ccc(O)c(O)c1 [KA, Kukoamine A]?
salt-enhancing activity on potato chips [1]: salt-enhancing activity; saltiness enhancement in salt solutions [2]: significant saltiness enhancement; Mean Saltiness Intensity ([2]; 3.52 g NaCl + 1.57 mg KA per L water (1x), pH 6.2-6.5, 15-point scale, eight panelists, Tukey group a (NaCl alone 5.1 b)): 5.9 a; Mean Saltiness Intensity ([2]; 3.52 g NaCl + 4.70 mg KA per L water (3x), pH 6.2-6.5, 15-point scale, eight panelists, Tukey group ab (NaCl alone 5.1 b)): 5.6 ab

N[C@@H](Cc1c[nH]c2ccccc12)C(=O)O [L-Trp, L-tryptophan] was tested. Which “salt-enhancing activity on potato chips” value [1] did it give?
The value was “salt-enhancing activity”.

What about the “Mean Saltiness Intensity” value ([2]; 3.52 g NaCl + 31.66 mg L-Trp per L water (1x), pH 6.2-6.5, 15-point scale, eight panelists, Tukey group a (NaCl alone 5.1 b)) of the same compound?
The value was 5.7 a.

And the “Mean Saltiness Intensity” value ([2]; 3.52 g NaCl + 94.98 mg L-Trp per L water (3x), pH 6.2-6.5, 15-point scale, eight panelists, Tukey group a (NaCl alone 5.1 b))?
Its value is 5.8 a.

Which results are given for [Cl-].[Na+] [NaCl, sodium chloride]?
Mean Saltiness Intensity ([1]; 9.2 g/kg NaCl on potato chips alone, 40% salt reduction sample comparison, nine panelists, Tukey group c): 4.2 c; Mean Saltiness Intensity ([1]; 12.3 g NaCl per Kg potato chips alone, 20% salt reduction sample comparison, nine panelists, Tukey group b): 5.0 b; Mean Saltiness Intensity ([1]; 15.4 g NaCl (full salt) per Kg potato chips, 20% salt reduction sample comparison, nine panelists, Tukey group a): 6.2 a; Mean Saltiness Intensity ([1]; 15.4 g NaCl (full salt) per Kg potato chips, 40% salt reduction sample comparison, nine panelists, Tukey group a): 6.2 a; Mean Saltiness Intensity ([1]; topical coating 9.2 g NaCl per Kg potato chips, 40% reduced salt, 15-point scale, twelve panelists, Tukey group C): 4.2 C; Mean Saltiness Intensity ([1]; topical coating 12.3 g NaCl per Kg potato chips, 20% reduced salt, 15-point scale, twelve panelists, Tukey group B): 5.3 B; Mean Saltiness Intensity ([1]; topical coating 15.4 g NaCl per Kg potato chips (traditional), 15-point scale, twelve panelists, Tukey group A): 6.1 A; Mean Saltiness Intensity ([2]; 2.64 g NaCl per L water, 40% reduced salt, 15-point scale, twelve panelists, Tukey group C): 4.4 C; Mean Saltiness Intensity ([2]; 3.52 g NaCl per L water alone, control of GAX sample set, 15-point scale, eight panelists, Tukey group b): 5.0 b; Mean Saltiness Intensity ([2]; 3.52 g NaCl per L water alone, control of KA sample set, 15-point scale, eight panelists, Tukey group b): 5.1 b; Mean Saltiness Intensity ([2]; 3.52 g NaCl per L water alone, control of L-Trp sample set, 15-point scale, eight panelists, Tukey group b): 5.1 b; Mean Saltiness Intensity ([2]; 3.52 g NaCl per L water, 20% reduced salt, 15-point scale, twelve panelists, Tukey group B): 5.4 B; Mean Saltiness Intensity ([2]; 4.40 g NaCl per L water (control), 15-point scale, twelve panelists, Tukey group A): 7.2 A

From US20220248732A1, “Saltiness-Perception Enhancing Compounds” (Frito-Lay North America, Inc., priority 2021, published 2022)
